RP-LC retention time data for 81 compounds are collected here from the METLIN SMRT retention time set (Domingo-Almenara et al. 2019).

The data set in a line: gradient 5% acetonitrile 3 min, to 50% in 2 min, to 85% in 15 min, held 3 min, 100 µL/min. The note with it: column: Zorbax Extend-C18 2.1 x 50 mm; eluents: water / acetonitrile, 0.1% formic acid. The procedure, abridged: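 Standards, all pure, were combined into mixtures of ~100 molecules and run at 100 μL/min on a Zorbax Extend-C18 column (2.1 × 50 mm, 1.8 μm) with water and acetonitrile, each containing 0.1% formic acid. A coupled quadrupole time-of-flight mass spectrometer operated in positive and negative ionization mode. Retention time values come from computationally picked adduct peaks, each inspected manually.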
`CSc1cccc(NC(=O)COc2cc(C(F)(F)F)c3c(C)nn(C)c3n2)c1` showed an RP-LC retention time of 756 s.

For the compound `CCC(C)NC(=O)C1CCN(Cc2cn(C)c3ccc(Cl)cc23)CC1` (stereo unspecified), the RP-LC retention time worked out at 673 s.

`Cc1cccc(NC(=O)Nc2ccc(C)n(CC(=O)O)c2=O)c1` returned an RP-LC retention time of 721 s.

`CC(C)Oc1ccc(-c2noc(CN3C(=O)COc4cc(C(C)(C)C)ccc43)n2)cc1` gave an RP-LC retention time of 1370 s.

In turn, `COC(=O)c1ccc2c(=O)n(Cc3ccc(OC)cc3)c(N3CCOCC3)nc2c1` came in with an RP-LC retention time of 943 s.

Regarding `COC(=O)C1=C(CN2CCOCC2)NC(=O)NC1c1ccc(OC)c(OC)c1` (stereo unspecified), the RP-LC retention time amounted to 571 s.

In the case of `Cc1cc2c(cc1S(=O)(=O)N1CCCC1C(=O)NC1CCCCCCC1)OCC(=O)N2` (stereo unspecified), the RP-LC retention time came to 834 s.

In the case of `Cc1ccc(N2C(=O)CCS2(=O)=O)cc1S(=O)(=O)NCCc1c[nH]c2ccccc12`, the RP-LC retention time amounted to 799 s.

In turn, `O=C(Cc1nnc(-c2cccc(F)c2)o1)NC1CCCC1` displayed an RP-LC retention time of 746 s.

`CC(=O)N1CCC(c2nc(-c3ccc4oc(-c5ccccc5)nc4c3)no2)CC1`: the RP-LC retention time worked out at 987 s.

For the compound `CCOC(=O)c1[nH]c(C)c(CN(Cc2ccco2)C(=O)Nc2ccccc2)c1C`, the RP-LC retention time came to 957 s.

`CCn1cc(S(=O)(=O)CC(=O)Nc2ccc3c(c2)OCO3)c2ccccc21` displayed an RP-LC retention time of 754 s.

For the compound `O=C(c1ccc2nsnc2c1)N1CCN(S(=O)(=O)C2CC2)CC1`, the RP-LC retention time amounted to 657 s.

Take `CC1CCN(C(=O)c2ccccc2OCC2CCCN(C3CCCC3)C2)CC1` (stereo unspecified): the RP-LC retention time is 696 s.

Compound `Cc1nc(-c2csc(S(=O)(=O)N3CCCC(C(=O)Nc4ccc(C)c(F)c4)C3)c2)no1` (stereo unspecified) showed an RP-LC retention time of 1030 s.

With `CCC1(O)CCC12CCN(C(=O)CCC1CCCC1)CC2` (stereo unspecified), the RP-LC retention time was 924 s.

`O=C(Cn1nc2c3ccccc3ncn2c1=O)Nc1ccc(Cl)cc1` showed an RP-LC retention time of 727 s.

In the case of `COc1ccccc1C(=O)N1c2ccccc2NC(=O)CC1C` (stereo unspecified), the RP-LC retention time turned out to be 639 s.

For `O=C(NCc1ccccc1F)C1CCN(c2cnc(N3CCCC3)nc2)CC1`, the RP-LC retention time came to 654 s.

Compound `CC1CCC(NC(=O)C2CCN(c3cnn(Cc4ccccc4)c(=O)c3)CC2)CC1` (stereo unspecified) displayed an RP-LC retention time of 841 s.

`CCOc1nc2ccccc2nc1N1CCCC(C(=O)Nc2ccc(Cl)cc2)C1` (stereo unspecified) gave an RP-LC retention time of 1300 s.

In turn, `COc1ccccc1NC(=O)Cn1c(=O)n(-c2ccc(F)cc2)c(=O)c2c1cc(C)n2C` displayed an RP-LC retention time of 833 s.

In the case of `CCn1c(-c2cccc(C(=O)NC3CCCCC3)c2)nc2cccnc21`, the RP-LC retention time was found to be 780 s.

The compound `CCOC(=O)c1cc(S(=O)(=O)N2CCCC2C(=O)Nc2cc(F)ccc2F)cn1C` (stereo unspecified) had an RP-LC retention time of 982 s.

On to `Cc1ccc(-n2nc(C(=O)N3CCN(c4ccccn4)CC3)c3ncn(C)c(=O)c32)cc1`, for which the RP-LC retention time is 608 s.

The compound `CCCCNC(=O)C1CCc2nc(N3CCC(C)CC3)ncc2C1` (stereo unspecified) yielded an RP-LC retention time of 758 s.

As for `CC(=O)C1=C(C)N(CC2CCCO2)C(=O)C1(NC(=O)c1ccc(C(C)(C)C)cc1)C(F)(F)F` (stereo unspecified), the RP-LC retention time stood at 1050 s.

`CCCNC(=O)CC1Sc2ncccc2N(CC(C)C)C1=O` (stereo unspecified): the RP-LC retention time was determined as 723 s.

`CCC(C)NC(=O)CCCn1c(=O)c2cccn2c2ccc(Br)cc21` (stereo unspecified) gave an RP-LC retention time of 894 s.

`O=C1c2ccccc2NC(c2cc(Cl)cc(Cl)c2O)N1CCc1ccccn1` (stereo unspecified) yielded an RP-LC retention time of 723 s.

`O=C1NCCCCCN(C(=O)c2ccc(Cn3ccnc3)o2)[C@H]2CCC[C@@H]12`: the RP-LC retention time is 567 s.

Compound `CNC(=O)c1cc(C)nc2c(C)cccc12` displayed an RP-LC retention time of 570 s.

In turn, `O=C(NCc1ccco1)C1CN(S(=O)(=O)c2ccccc2)CC12CCCCC2` (stereo unspecified) yielded an RP-LC retention time of 942 s.

`Cc1ccc(NC(=O)N2CCCC2c2nncn2C2CCCC2)c(C)c1` (stereo unspecified) came in with an RP-LC retention time of 692 s.

As to `COC(=O)c1ccccc1Nc1c(-c2ccccn2)nc2cnccn12`, the RP-LC retention time is 816 s.

`CCCCNC(=O)c1cc2n(n1)CC(C)(C(=O)NCc1ccc(F)cc1)N(C)C2=O` (stereo unspecified): the RP-LC retention time turned out to be 725 s.

In the case of `COCCNC(=O)C1CCN(c2nc3ccc(-c4ccccc4)nc3s2)CC1`, the RP-LC retention time was 832 s.

As to `O=C([C@H]1C[C@@H](F)CN1C(=O)Nc1cccc(Cl)c1)N1CCOCC1`, the RP-LC retention time amounted to 653 s.

Consider `Cc1ccc(C)c(-c2csc(Nc3ccc(S(=O)(=O)Nc4cc(C)on4)cc3)n2)c1`, for which the RP-LC retention time amounted to 1070 s.

Turning to `O=C(COc1ccc(F)cc1)N1CCCCC1CCN1CCCCC1` (stereo unspecified), the RP-LC retention time came out at 648 s.

As for `CCc1ccc(S(=O)(=O)N2CCC(C(=O)NCCc3csc(-c4cccs4)n3)CC2)cc1`, the RP-LC retention time amounted to 1000 s.

In turn, `CC(C)CCNC(=O)c1cc2n(n1)CC(C)(C(=O)NCc1ccc(F)cc1)N(C)C2=O` (stereo unspecified) displayed an RP-LC retention time of 770 s.

Compound `Cc1cccc(NC(=O)Cn2cnc(-c3nc(C)cs3)c2)c1` returned an RP-LC retention time of 687 s.

Regarding `O=C(C1CCN(S(=O)(=O)c2cc(-c3noc(C4CCC4)n3)cs2)CC1)N1CCCCCC1`, the RP-LC retention time was found to be 1050 s.

For the compound `CCN1C(=O)c2cccnc2Sc2cc(CNC(=O)Cc3ccc(OC)cc3)ccc21`, the RP-LC retention time was determined as 742 s.

Compound `CC(C)CN1CCN(C(=O)C2CCCN(c3nnc4ccc(C(F)(F)F)cn34)C2)CC1` (stereo unspecified) displayed an RP-LC retention time of 614 s.

Compound `COc1ccc(-c2cc3nn(CC(=O)N4CCOCC4)c(=O)n3c(C)n2)cc1` displayed an RP-LC retention time of 717 s.

Consider `O=C(NCC1CCOCC1)c1n[nH]c2ccccc12`, for which the RP-LC retention time came out at 654 s.

`COc1ccc(/C=C/C(=O)Oc2cc(O)cc(O)c2)cc1` displayed an RP-LC retention time of 763 s.

Consider `Cc1cc2c(cc1S(=O)(=O)N1CCCC1C(=O)NC1CCCCCCC1)OC(C)C(=O)N2` (stereo unspecified), for which the RP-LC retention time is 857 s.

The compound `CCC(=O)N1CCN(c2nc3c(s2)CC(C(=O)Nc2cc(F)ccc2F)CC3)CC1` (stereo unspecified) had an RP-LC retention time of 633 s.

For `CCC(C)NC(=O)N1CC(Oc2ccc(-c3noc(COC)n3)cc2)C1` (stereo unspecified), the RP-LC retention time was 794 s.

Consider `Cn1cc(CN2CCC(C(=O)NCCCc3ccccc3)CC2)c2cc(Cl)ccc21`, for which the RP-LC retention time was found to be 753 s.

With `COc1cc(C(=O)Nc2nc3c(s2)CCc2ccccc2-3)cc(OC)c1OC`, the RP-LC retention time amounted to 1110 s.

`COc1ccccc1C(=O)N1CC(Oc2ccc(-c3nc(-c4ccccc4)no3)cc2)C1` displayed an RP-LC retention time of 1160 s.

On to `CCCNC(=O)N(CC(=O)N1CCc2sccc2C1COc1ccc(C)cc1)CC1CCCO1` (stereo unspecified), for which the RP-LC retention time was 1000 s.

`O=C(NC1CC1)c1ccc2c(c1)CCN2C(=O)C1CCC1`: the RP-LC retention time was found to be 721 s.

As for `Cc1ccc(-c2ncccc2CNS(=O)(=O)c2cccc(C)c2)cc1`, the RP-LC retention time stood at 726 s.

With `O=C(CCc1ccccc1)N1CCN(c2cc(-c3cccs3)[nH]n2)CC1`, the RP-LC retention time stood at 808 s.

On to `CC(C)OCCCNC(=O)C1CCCN(c2ccc(=O)n(-c3cccc(Cl)c3)n2)C1` (stereo unspecified), for which the RP-LC retention time is 789 s.

`Cc1ccsc1CN1CCn2nnc(CCC(=O)N3CCCC3)c2C1` came in with an RP-LC retention time of 646 s.

In turn, `COCCCNc1c(C(=O)OC)c(=O)[nH]c2c(Cl)cccc12` returned an RP-LC retention time of 692 s.

`CCOc1ccc(NC(=O)c2c(N3CCCC3=O)c3cc(OC)ccc3n2C)cc1` showed an RP-LC retention time of 984 s.

The compound `Cc1ccc(CNC(=O)Cn2c(N(C)Cc3ccccc3)nc(C)cc2=O)cc1` registered an RP-LC retention time of 778 s.

Consider `O=C(Nc1cccc(-c2ccc(N3CCOCC3)nn2)c1)Nc1ccc2c(c1)CCC2`, for which the RP-LC retention time amounted to 792 s.

Take `O=C(NCc1ccc(F)cc1)C1CCCN(S(=O)(=O)c2c[nH]c(C(=O)N3CCCCCC3)c2)C1` (stereo unspecified): the RP-LC retention time amounted to 838 s.

Compound `Cc1cccc(-c2nnc(-c3cc(S(=O)(=O)N4CCCCC4)ccc3Cl)o2)c1` yielded an RP-LC retention time of 1210 s.

For `O=c1oc2cc(O)cc(O)c2c2ccccc12`, the RP-LC retention time was determined as 699 s.

In the case of `CC(=O)N1CCc2cc(N3CC(C(=O)NCc4cccc(C)c4)CC3=O)ccc21` (stereo unspecified), the RP-LC retention time was 693 s.

`COC(=O)c1cccc(NC(=O)NCCn2nnc3cc(S(=O)(=O)N(C)C)ccc32)c1` yielded an RP-LC retention time of 732 s.

`O=C1OCC/C1=C\c1ccc2c(c1)OCO2` yielded an RP-LC retention time of 830 s.

The compound `Cc1nnc2n1CCC(NC(=O)c1ccsc1)CC2` (stereo unspecified) returned an RP-LC retention time of 559 s.

The compound `O=C(c1ccc(F)c(F)c1)N1CCC2(CC1)N=C(c1ccc(Cl)cc1)NO2` displayed an RP-LC retention time of 920 s.

`O=C(Nc1cccc(F)c1)C1CCc2nc(N3CCOCC3)ncc2C1` (stereo unspecified) gave an RP-LC retention time of 778 s.

Compound `CCNC(=O)C1CCCN(S(=O)(=O)c2ccc(OC)c(OC)c2)C1` (stereo unspecified) came in with an RP-LC retention time of 684 s.

On to `COc1ccc(Cl)cc1NS(=O)(=O)c1cc2n(c1)CCCN(C)C2=O`, for which the RP-LC retention time worked out at 724 s.

Take `O=C(c1ccc(F)c(F)c1)N1CCCC1c1nc(-c2ccccc2)no1` (stereo unspecified): the RP-LC retention time was 653 s.

With `CCN(Cc1ccc(C)cc1)Cc1cc(=O)n2cc(Cl)ccc2n1`, the RP-LC retention time amounted to 652 s.

`COCC(=O)Nc1cnc(-c2ccc(Cl)cc2)nc1` yielded an RP-LC retention time of 857 s.

`Cc1cc(C(=O)NCC2CCN(C(=O)NC(C)(C)C)CC2)c(C)o1` returned an RP-LC retention time of 699 s.

Consider `CCN(CC)CCNC(=O)c1ccnc(-c2cccs2)c1`, for which the RP-LC retention time was 597 s.
